Assay: Particle size of milled tacrolimus particles by laser particle size analyzer (Malvern 3000)
Assay type: physicochemical
Details: for D90 / D10 / D50 / D [3, 3] / D [4, 3]: Malvern 3000
Method: The milling process is conducted under the water bath at the temperature of about 4 to 18° C. for decreasing high-released energy in case of the deactivation of the milled particles.
Table 1 illustrates the statistically analyzed diameter size of the milled particles after different milling time, detected by laser particle size analyzer, Malven 3000. After milling for 90 mins, the D90 of the particles is decreased to a level of less than 400 nm. Furthermore, it was observed that preferred D90 of milled particles would be limited in the range of 100 nm to 800 nm. If D90 is less than 100 nm, the issue of particle aggregation cannot be prevented. If D90 is greater than 800 nm, the favorable effect is not significant.

- D90 of the particles (after milling for 90 mins): less than 400 nm
- D90 (milling time 0 min (unmilled)): 17.000 μm
- D10 (milling time 0 min): 2.300 μm
- D50 (milling time 0 min): 6.600 μm
- D [3, 3] (milling time 0 min): 4.860 μm
- D [4, 3] (milling time 0 min): 8.880 μm
- D10 (milling time 15 min): 0.157 μm
- D50 (milling time 15 min): 0.338 μm
- D90 (milling time 15 min): 0.967 μm
- D [3, 3] (milling time 15 min): 0.294 μm
- D [4, 3] (milling time 15 min): 0.578 μm
- D10 (milling time 30 min): 0.119 μm
- D50 (milling time 30 min): 0.255 μm
- D90 (milling time 30 min): 0.572 μm
- D [3, 3] (milling time 30 min): 0.219 μm
- D [4, 3] (milling time 30 min): 0.328 μm
- D10 (milling time 45 min): 0.123 μm
- D50 (milling time 45 min): 0.270 μm
- D90 (milling time 45 min): 0.608 μm
- D [3, 3] (milling time 45 min): 0.230 μm
- D [4, 3] (milling time 45 min): 1.360 μm
- D10 (milling time 60 min): 0.094 μm
- D50 (milling time 60 min): 0.198 μm
- D90 (milling time 60 min): 0.426 μm
- D [3, 3] (milling time 60 min): 0.170 μm
- D [4, 3] (milling time 60 min): 0.232 μm
- D10 (milling time 75 min): 0.088 μm
- D50 (milling time 75 min): 0.183 μm
- D90 (milling time 75 min): 0.390 μm
- D [3, 3] (milling time 75 min): 0.158 μm
- D [4, 3] (milling time 75 min): 0.216 μm
- D10 (milling time 90 min): 0.083 μm
- D50 (milling time 90 min): 0.174 μm
- D90 (milling time 90 min): 0.364 μm
- D [3, 3] (milling time 90 min): 0.149 μm
- D [4, 3] (milling time 90 min): 0.202 μm
Compound: C=CC[C@@H]1/C=C(\C)C[C@H](C)C[C@H](OC)[C@H]2O[C@@](O)(C(=O)C(=O)N3CCCC[C@H]3C(=O)O[C@H](/C(C)=C/[C@@H]3CC[C@@H](O)[C@H](OC)C3)[C@H](C)[C@@H](O)CC1=O)[C@H](C)C[C@@H]2OC [tacrolimus]
